Results as given in a melting point compilation (Tetko et al.; mined from patent text by program, amines drawn as free bases though some values may be those of a salt).

| melting point | SMILES |
| --- | --- |
| 148 to 149 °C | CC(C)(C)N(Cc1ccccc1)CC(O)c1ccc(OCc2ccccc2)c(C(O)CO)c1 (stereo not drawn) |
| 178 to 180 °C | COc1cc(C=Cc2conc2C)cc(Br)c1O |
| 155 to 158 °C | Cn1ncnc1-c1ccc(C(=O)N2Cc3cccn3Cc3ccccc32)cc1 |
| 106 to 108 °C | CCOc1c(C)c(N2CCN(c3ccc(OC)cc3)CC2)c(C)c2c1OC(C)C2 (stereo not drawn) |
| 100 °C | CCCCCCCNC(=O)Nc1ccccc1CCc1cc(C(C)(C)C)c(O)c(C(C)(C)C)c1 |
| 46 to 48.5 °C | COc1ccc([N+](=O)[O-])c(N2CCCC2)c1 |
| 152 to 156 °C | Cc1ccc(Sc2cncc3sc(C=NOCC(N)=O)cc23)cc1 |
| 110 to 112 °C | CCCN1C(=O)N2C[C@@H](Cc3ccccc3)N=C2c2c1nc(SC)n2COC |
| 259 to 261 °C | O=C(O)c1ccc(C(=O)NS(=O)(=O)c2ccccc2)cc1 |
| 133 to 140 °C | Cc1cccc(-c2ccc3c(c2)CC[C@H]2N(C)C(=O)CC[C@]32C)c1C |
| 160 to 161 °C | COc1cc2ccccc2cc1NC(=O)N1CCN(c2cc(F)cc(F)c2)CC1 |
| 106 to 111 °C | CCCCNC1CC(C)(C)N(CCO)C(C)(C)C1 |
| 155 to 158 °C | CCC(=O)c1ccccc1CS(=O)(=O)NC(=O)Nc1nc(OC)cc(OC)n1 |
| 125 to 126 °C | c1ccc2cc(OCCCCCCCCOc3ccc4ccccc4c3)ccc2c1 |
| 178 to 179 °C | CC(=O)Nc1cccc(C(=O)Nc2cc(NC(=O)c3cccc(N(C)C)c3)ccc2C)c1 |
| 150 to 152 °C | Cc1cn(-c2ccc(NC(=O)c3ccc(Cl)c(C#Cc4ccc(NC5CC5)nn4)c3)cc2C(F)(F)F)cn1 |
| 154 to 155 °C | COC(=O)CCCCCOC1OC(CO)C(O)C(O)C1NC(C)=O (stereo not drawn) |
| 142 to 144 °C | O=C(CC(C(=O)c1ccccc1)C(O)=S)c1ccccc1 (stereo not drawn) |
| 167 to 169 °C | CC(C)(C)c1cc(CCC(=O)O)cc2c1OC(=O)C2 |
| > 300 °C | NC(=O)c1ccc(-c2cc3cc(C4=NNC(=O)CC4)ccc3[nH]2)cc1 |
| 123 to 125 °C | COc1cc2c(cc1OC)-c1c(-c3ccccc3)sc(=N)n1CC2 |
| 153 to 154 °C | CCc1cc(Nc2ccc(N)cc2)n2nccc2n1 |
| 196 to 197 °C | COc1ccc2c(c1)C1=C(SCC3(CCN(Cc4ccc(F)cc4)CC3)O1)C(=O)C2=O |
| 72 to 74 °C | Clc1ccc(C(Cl)c2cc3cc(Cl)cc(Cl)c3o2)cc1 (stereo not drawn) |

| melting point | SMILES |
| --- | --- |
| 161 °C | COc1ccccc1CNc1ccc2c(C(=N)NO)cccc2n1 |
| 216 to 218 °C | C[C@@H](O)c1nccc(N2CCn3c(nnc3-c3nc4ccccc4s3)C2)n1 |
| 105 to 110 °C | COc1cc2c3c4c(c(-c5ccccc5)cc3n(C)c2cc1CCCO)C(=O)NC4=O |
| 157 to 160 °C | Nc1ccc(Sc2cc(Cl)cc(Cl)c2)c(Cl)c1 |
| 166 to 167 °C | CCOC(=O)Cn1c(=O)n(Cc2ccc(Cl)c(Cl)c2)c(=O)c2c(C)c(Br)sc21 |
| 210 °C | Cc1noc(NS(=O)(=O)c2ccc(-c3cccs3)s2)c1Br |
| 94.5 to 95.3 °C | C=CCC(Cc1ccc(OC)c(OCCc2ccccc2)c1)NC(=O)OC(C)(C)C (stereo not drawn) |
| 110 to 112 °C | CCCCC12COC(c3ccc(Br)cc3)(OC1)SC2 |
| 154 to 155 °C | CC(=O)OCC1OC(n2c(Cl)c(C=O)c3cc(Cl)c(Cl)cc32)C(O)C1O (stereo not drawn) |
| 95 to 102 °C | CCC1(CO)COCOC1 |
| 78 °C | NS(=O)(=O)c1ccccc1N1CCCC1 |
| 190 to 192 °C | CCOC(=O)c1c2ccc(CC(=O)NOCCO)ccc-2c(C(=O)OCC)c1N |
| 142 to 143 °C | CCOCc1nc2c(N)nc3cc(-c4ccccc4)ccc3c2n1CC1CCNCC1 |
| 234 to 236 °C | CNC(=O)Nc1ccc(Cc2cc(C)c(C(=O)c3ccc(Cl)cc3)n2C)nc1 |
| 196 to 198 °C | CCCn1nc(C)c2nc(C)nc(O)c21 |
| 68 to 70 °C | C[C@@](O)(C(=O)Nc1ccc(S(=O)(=O)c2ccccc2NCCO)cc1Cl)C(F)(F)F |
| 225 °C | O=C(O)c1cc(C(F)(F)F)cc(Cl)c1-n1cnc(C(F)(F)F)cc1=O |
| 160 to 162 °C | CCOC(=O)C(CC)Oc1cccc(N2CCN(c3ccncc3)CC2)c1 (stereo not drawn) |
| 208 to 210 °C | N#Cc1c(N)nn(-c2c(Cl)cc(C(F)(F)F)cc2Cl)c1N |
| 248 °C | Cn1cc(OS(C)(=O)=O)c(=O)c2ccc(S(C)=O)cc21 (stereo not drawn) |
| 101 to 103 °C | COc1ccc(C(=O)CCC2CCN(C(C)=O)CC2)cc1N |
| 195 °C | Cc1c(-c2ccccc2)c(OCc2ncnn2C)nn2c(-c3ccccc3)nnc12 |
| 132 to 135 °C | COc1c2c(c(OC)c(OC)c1OC)CCC(CCOc1ccccn1)CC2 |
| 112 to 113 °C | CCCN1C(=O)N2C[C@@H](Cc3ccccc3)N=C2c2c1nc(CCl)n2Cc1ccccc1 |

| melting point | SMILES |
| --- | --- |
| 69 to 70 °C | O=S(Sc1ccccc1)c1ccccc1 (stereo not drawn) |
| 175 to 176 °C | Cc1ccc(-c2cc(C)cn2-c2ccc(S(N)(=O)=O)cc2)cc1 |
| 99 to 100 °C | CC(=O)C1C(=O)CC(CCS(=O)c2ccc(C(F)(F)F)cc2)CC1=O (stereo not drawn) |
| 279 to 281 °C | O=C(O)C1(c2ccc(Nc3nc(N4CCOCC4)nc4c3CCC4)cc2)CCC1 |
| 92 °C | CCCCCCCCCCCCCCCCS(=O)(=O)c1ccc(-n2c(=O)cc(N)n2C(=O)OCC)cc1 |
| 91.3 to 93.6 °C | OCCCc1ccc(OCC2CCCO2)cc1Oc1ncc(C(F)(F)F)cc1Cl (stereo not drawn) |
| 129 to 130 °C | CCC(C(C)=CC(CNC(=O)C1=NNC(=O)CC1)=NO)[N+](=O)[O-] (stereo not drawn) |
| 116 °C | CC(=O)C=Cc1c(C)c(C)c(C)c2c1OCC2 |
| 108 to 112 °C | CCC(C(=O)O)c1ccc(C(=O)c2ccc(Cl)cc2)n1C (stereo not drawn) |
| > 250 °C | NCC1Cc2cc(-c3ccc(Cl)cc3)cc(F)c2O1 (stereo not drawn) |
| 127 to 130 °C | CC1=Cc2cc(-c3nnnn3C)ccc2OC1(C)C |
| 233 to 236 °C | CN(CCF)c1nc2cc(NC(=O)c3c(C(=O)N4CC(F)C4)cnn3C)ccn2n1 |
| 127 °C | O=[N+]([O-])c1ccc(Cl)c(NC(=S)NCCCO)c1 |
| 232 °C | O=C1NC(=Cc2c(Cl)cccc2Cl)C(=O)C1=NO |
| 220 to 222 °C | CC(C)(C)c1cc(-c2nc3ccc(O)cc3o2)ccc1O |
| 254 °C | Nc1ncc(-c2noc(-c3cnn4c(C(F)(F)F)cc(-c5ccc(C(F)(F)F)cc5)nc34)n2)cn1 |
| 111 to 113 °C | CC(=O)c1ccc(OCCCOc2cc(N)c(C)cc2Cl)c(CCC(F)(F)F)c1O |
| 213 to 218 °C | COc1c(C(C)(C)C)cc(COc2ccc(C=C3SC(=S)NC3=O)cc2)cc1C(C)(C)C |
| > 250 °C | O=C(O)c1cc(CC(C(=O)O)C(=O)O)c2ccccn2c1=O |
| 99 to 102 °C | CC1CCCN1CCCN1CCN(CCCN2CCC(F)(F)C2)C1=C(C#N)C#N (stereo not drawn) |
| 108 to 111 °C | CN1C(=O)c2c(-c3ccccc3)noc2CC1c1ccccc1 (stereo not drawn) |
| 242 to 243 °C | NC(CC(=O)O)C(=O)N1C(=O)c2ccc(C(=O)O)cc2C1=O (stereo not drawn) |

| SMILES | melting point |
| --- | --- |
| Clc1ccc(Cl)c(CN2CCNc3ncc(C4=CCNCC4)cc32)c1 | 133 to 136 °C |
| CCN1CCc2c(NC(C)=O)ccc(Br)c2C1 | 168 to 169 °C |
| CN1C2CCC(NC(=O)c3n[nH]c4ccccc34)C1CC2 (stereo not drawn) | 222 to 224 °C |
